Assay results: PMC3627854 (Osteoporosis International, 2012)

Target: T1, IKKα (Mus musculus, UniProt Q60680)
T1 sequence (Q60680 1-745): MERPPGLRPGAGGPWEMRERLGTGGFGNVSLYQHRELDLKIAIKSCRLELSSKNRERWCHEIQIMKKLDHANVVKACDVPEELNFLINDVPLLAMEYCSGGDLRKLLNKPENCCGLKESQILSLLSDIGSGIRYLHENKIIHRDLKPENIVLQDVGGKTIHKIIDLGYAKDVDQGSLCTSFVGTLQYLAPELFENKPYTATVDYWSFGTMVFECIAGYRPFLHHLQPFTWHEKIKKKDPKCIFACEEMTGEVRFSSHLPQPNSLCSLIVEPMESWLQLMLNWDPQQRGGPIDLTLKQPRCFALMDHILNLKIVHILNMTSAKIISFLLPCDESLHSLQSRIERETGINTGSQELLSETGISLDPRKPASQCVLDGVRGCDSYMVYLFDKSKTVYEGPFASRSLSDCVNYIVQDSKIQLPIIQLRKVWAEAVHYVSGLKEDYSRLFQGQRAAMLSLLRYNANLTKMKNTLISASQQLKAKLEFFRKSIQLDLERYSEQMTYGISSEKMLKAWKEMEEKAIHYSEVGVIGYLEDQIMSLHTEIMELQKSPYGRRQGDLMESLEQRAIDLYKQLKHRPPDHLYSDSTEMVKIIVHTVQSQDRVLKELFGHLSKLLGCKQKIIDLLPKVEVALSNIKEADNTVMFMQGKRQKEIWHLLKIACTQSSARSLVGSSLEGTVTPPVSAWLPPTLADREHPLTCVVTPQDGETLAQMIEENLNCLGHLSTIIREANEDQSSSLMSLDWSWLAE
Assay: IKKα KinEASE FP kinase activity assay, RANKL-stimulated RAW […] cells
Assay type: cell-based

IC50: ~57.6 µM
Structure (SMILES): O=C1C[C@@H](O[C@@H]2O[C@H](CO)[C@@H](O)[C@H](O)[C@H]2O)CO1 [kinsenoside, 3-(R)-3-β-D-glucopyranosyloxybutanolide]
